Tests used:
[1] = target: full-length human BTK (Homo sapiens (Human), UniProt Q06187); experiment: BTK IC50 Enzyme Assay (microfluidic off-chip mobility shift kinase assay); type: biochemical; details: Btk Enzymatic IC50 Assay, 90 min at 27 C;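 also: Read-out separates phosphorylated peptide product from substrate by their charge-to-mass difference, with IC50 fitted from log inhibitor concentration against percent enzyme activity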
[2] = target: Btk (Homo sapiens (Human), UniProt Q06187); experiment: Btk PBMC IC50 Cell Assay (anti-IgM-induced CD69 expression on B cells); type: cell-based; details: anti-IgM-induced CD69 expression on CD19 positive cells in human PBMCs;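 also: freshly isolated human PBMCs, IC50 from concentration-response of the share of CD19+ cells expressing CD69 after anti-IgM BCR stimulation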
Chain of Btk (Q06187 whole entry): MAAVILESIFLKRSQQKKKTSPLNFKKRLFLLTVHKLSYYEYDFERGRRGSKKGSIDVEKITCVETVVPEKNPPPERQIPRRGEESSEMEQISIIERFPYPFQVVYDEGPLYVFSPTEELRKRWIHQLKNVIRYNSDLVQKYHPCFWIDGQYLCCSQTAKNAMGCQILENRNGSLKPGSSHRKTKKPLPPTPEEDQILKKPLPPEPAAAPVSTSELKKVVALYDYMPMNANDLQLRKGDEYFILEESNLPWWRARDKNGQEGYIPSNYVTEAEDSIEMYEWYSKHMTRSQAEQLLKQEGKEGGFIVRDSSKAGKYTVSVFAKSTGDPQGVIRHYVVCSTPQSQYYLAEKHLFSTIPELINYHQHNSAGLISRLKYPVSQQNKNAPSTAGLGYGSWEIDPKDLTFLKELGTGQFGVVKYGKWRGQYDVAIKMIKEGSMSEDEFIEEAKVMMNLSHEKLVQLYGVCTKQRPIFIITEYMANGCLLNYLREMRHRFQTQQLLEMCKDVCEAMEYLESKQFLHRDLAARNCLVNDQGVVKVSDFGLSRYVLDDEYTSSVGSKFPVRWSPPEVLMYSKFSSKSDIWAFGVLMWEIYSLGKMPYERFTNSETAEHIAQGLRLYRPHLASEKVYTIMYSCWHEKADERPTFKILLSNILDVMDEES

Chain of full-length human BTK (Q06187 whole entry): as above

IC50 [1]	IC50 [2]	Compound
< 1 nM	1 to 10 nM	Cc1nn(C(C)C)c(C)c1-c1nc2c(-c3ccc4c(c3)CCCCC4NC(=O)c3noc(C4(C)CC4)n3)ccnc2[nH]1 (centres unmarked) [Compound 32, 5-(1-Methyl-cyclopropyl)-[1,2,4]oxadiazole-3-carboxylic acid {2-[2-(1-isopropyl-3,5-dimethyl-1H-pyrazol-4-yl)-3H-imidazo[4,5-b]pyridin-7-yl]-6,7,8,9-tetrahydro-5H-benzocyclohepten-5-yl}-amide]
< 1 nM	1 to 10 nM	Cc1nn(C)c(C)c1-c1nc2c(-c3ccc4c(c3)OCCC[C@@H]4NC(=O)c3nnc(C(C)(C)C)o3)ccnc2[nH]1 [Compound 19, 5-tert-Butyl-[1,3,4]oxadiazole-2-carboxylic acid {(S)-8-[2-(1,3,5-trimethyl-1H-pyrazol-4-yl)-3H-imidazo[4,5-b]pyridin-7-yl]-2,3,4,5-tetrahydro-benzo[b]oxepin-5-yl}-amide]
< 1 nM	1 to 10 nM	Cc1nn(C)c(C)c1-c1nc2c(-c3ccc4c(c3)CCCCC4NC(=O)c3noc(C(C)(C)C)n3)ccnc2[nH]1 (centres unmarked) [Compound 8, 5-tert-Butyl-[1,2,4]oxadiazole-3-carboxylic acid {2-[2-(1,3,5-trimethyl-1H-pyrazol-4-yl)-3H-imidazo[4,5-b]pyridin-7-yl]-6,7,8,9-tetrahydro-5H-benzocyclohepten-5-yl}-amide]
< 1 nM	1 to 10 nM	Cn1cc(-c2nc3c(-c4ccc5c(c4)OCCCC5NC(=O)c4nc(C(C)(C)C)no4)ccnc3[nH]2)cn1 (centres unmarked) [Compound 38, 3-tert-Butyl-[1,2,4]oxadiazole-5-carboxylic acid {8-[2-(1-methyl-1H-pyrazol-4-yl)-3H-imidazo[4,5-b]pyridin-7-yl]-2,3,4,5-tetrahydro-benzo[b]oxepin-5-yl}-amide]
1 to 10 nM	> 100 nM	Cc1nn(C(C)C)c(C)c1-c1nc2c(-c3ccc4c(c3)CCCC[C@@H]4NC(=O)c3nnc(C(C)(C)C)o3)ccnc2[nH]1 [Compound 88, 5-tert-butyl-N-[(5S)-2-{2-[3,5-dimethyl-1-(propan-2-yl)-1H-pyrazol-4-yl]-3H-imidazo[4,5-b]pyridin-7-yl}-6,7,8,9-tetrahydro-5H-benzo[7]annulen-5-yl]-1,3,4-oxadiazole-2-carboxamide]
1 to 10 nM	10 to 100 nM	Cn1cc(-c2nc3c(-c4ccc5c(c4)CCCC[C@@H]5NC(=O)c4noc(C(C)(C)C)n4)ccnc3[nH]2)cn1 [Compound 53, 5-tert-Butyl-[1,2,4]oxadiazole-3-carboxylic acid {(S)-2-[2-(1-methyl-1H-pyrazol-4-yl)-3H-imidazo[4,5-b]pyridin-7-yl]-6,7,8,9-tetrahydro-5H-benzocyclohepten-5-yl}-amid]
1 to 10 nM	10 to 100 nM	Cc1nn(C)c(C)c1-c1nc2nccc(-c3ccc4c(c3)CCCC[C@@H]4NC(=O)c3cc(C(C)(C)C)on3)c2[nH]1 [Compound 71, 5-tert-butyl-N-[(5S)-2-[2-(1,3,5-trimethyl-1H-pyrazol-4-yl)-1H-imidazo[4,5-b]pyridin-7-yl]-6,7,8,9-tetrahydro-5H-benzo[7]annulen-5-yl]-1,2-oxazole-3-carboxamide]
< 1 nM	1 to 10 nM	Cc1nn(C(C)C)cc1-c1nc2c(-c3ccc4c(c3)CCCC[C@H]4NC(=O)c3noc(C(C)(C)C)n3)ccnc2[nH]1 [Compound 61, 5-tert-Butyl-[1,2,4]oxadiazole-3-carboxylic acid {(R)-2-[2-(1-isopropyl-3-methyl-1H-pyrazol-4-yl)-3H-imidazo[4,5-b]pyridin-7-yl]-6,7,8,9-tetrahydro-5H-benzocyclohepten-5-yl}-amide]
< 1 nM	1 to 10 nM	Cc1nn(C(C)C)cc1-c1nc2c(-c3ccc4c(c3)CCCCC4NC(=O)c3noc(C(C)(C)C)n3)ccnc2[nH]1 (centres unmarked) [Compound 58, 5-tert-Butyl-[1,2,4]oxadiazole-3-carboxylic acid {2-[2-(1-isopropyl-3-methyl-1H-pyrazol-4-yl)-3H-imidazo[4,5-b]pyridin-7-yl]-6,7,8,9-tetrahydro-5H-benzocyclohepten-5-yl}-amide]
< 1 nM	1 to 10 nM	Cc1c(-c2nc3c(-c4ccc5c(c4)CCCC[C@H]5NC(=O)c4noc(C(C)(C)C)n4)ccnc3[nH]2)cnn1C(C)C [Compound 21, 5-tert-Butyl-[1,2,4]oxadiazole-3-carboxylic acid {(R)-2-[2-(1-isopropyl-5-methyl-1H-pyrazol-4-yl)-3H-imidazo[4,5-b]pyridin-7-yl]-6,7,8,9-tetrahydro-5H-benzocyclohepten-5-yl}-amide]
< 1 nM	1 to 10 nM	Cc1c(-c2nc3c(-c4ccc5c(c4)CCC[C@@H]5NC(=O)c4noc(C5(C)CC5)n4)ccnc3[nH]2)cnn1C1CCOCC1 [Compound 163, 5-(1-Methyl-cyclopropyl)-[1,2,4]oxadiazole-3-carboxylic acid ((S)-6-{2-[5-methyl-1-(tetrahydro-pyran-4-yl)-1H-pyrazol-4-yl]-3H-imidazo[4,5-b]pyridin-7-yl}-1,2,3,4-tetrahydro-naphthalen-1-yl)-amide]
1 to 10 nM	> 100 nM	Cc1nn(C)c(C)c1-c1nc2c(-c3ccc4c(c3)OCCC[C@H]4NC(=O)c3noc(C(C)(C)C)n3)ccnc2[nH]1 [Compound 15, 5-tert-Butyl-[1,2,4]oxadiazole-3-carboxylic acid {(R)-8-[2-(1,3,5-trimethyl-1H-pyrazol-4-yl)-3H-imidazo[4,5-b]pyridin-7-yl]-2,3,4,5-tetrahydro-benzo[b]oxepin-5-yl}-amide]
> 100 nM	> 100 nM	Cc1c(-c2nc3c(-c4ccc5c(c4)CCCC[C@@H]5NC(=O)c4nc(C5(C)CC5)no4)ccnc3[nH]2)cnn1C(C)C [Compound 28, 3-(1-Methyl-cyclopropyl)-[1,2,4]oxadiazole-5-carboxylic acid {(S)-2-[2-(1-isopropyl-5-methyl-1H-pyrazol-4-yl)-3H-imidazo[4,5-b]pyridin-7-yl]-6,7,8,9-tetrahydro-5H-benzocyclohepten-5-yl}-amide]
1 to 10 nM	10 to 100 nM	CCc1cc(-c2nc3nccc(-c4ccc5c(c4)CCCC[C@H]5NC(=O)c4nnc(C(C)(C)C)o4)c3[nH]2)nn1C [Compound 90, 5-tert-butyl-N-[(5R)-2-[2-(5-ethyl-1-methyl-1H-pyrazol-3-yl)-1H-imidazo[4,5-b]pyridin-7-yl]-6,7,8,9-tetrahydro-5H-benzo[7]annulen-5-yl]-1,3,4-oxadiazole-2-carboxamide]
1 to 10 nM	10 to 100 nM	Cc1nn(C(C)C)cc1-c1nc2nccc(-c3ccc4c(c3)CCCC[C@@H]4NC(=O)c3nnc(C(C)(C)C)o3)c2[nH]1 [Compound 77, 5-tert-butyl-N-[(5S)-2-{2-[3-methyl-1-(propan-2-yl)-1H-pyrazol-4-yl]-1H-imidazo[4,5-b]pyridin-7-yl}-6,7,8,9-tetrahydro-5H-benzo[7]annulen-5-yl]-1,3,4-oxadiazole-2-carboxamide]
1 to 10 nM	1 to 10 nM	Cc1nn(C)c(C)c1-c1nc2c(-c3ccc4c(c3)CCC[C@@H]4NC(=O)c3nc(C(C)(C)C)no3)ccnc2[nH]1 [Compound 73, 3-tert-butyl-N-[(1S)-6-[2-(1,3,5-trimethyl-1H-pyrazol-4-yl)-3H-imidazo[4,5-b]pyridin-7-yl]-1,2,3,4-tetrahydronaphthalen-1-yl]-1,2,4-oxadiazole-5-carboxamide]
< 1 nM	1 to 10 nM	Cc1nn(C(C)C)c(C)c1-c1nc2c(-c3ccc4c(c3)CCCC[C@H]4NC(=O)c3nnc(C(C)(C)C)o3)ccnc2[nH]1 [Compound 87, 5-tert-butyl-N-[(5R)-2-{2-[3,5-dimethyl-1-(propan-2-yl)-1H-pyrazol-4-yl]-3H-imidazo[4,5-b]pyridin-7-yl}-6,7,8,9-tetrahydro-5H-benzo[7]annulen-5-yl]-1,3,4-oxadiazole-2-carboxamide]
1 to 10 nM	–	CC(C)n1cc(-c2nc3c(-c4ccc5c(c4)CCCC[C@@H]5NC(=O)c4cc(C(C)(C)C)on4)ccnc3[nH]2)cn1 [Compound 93, 5-tert-butyl-N-[(5S)-2-{2-[1-(propan-2-yl)-1H-pyrazol-4-yl]-3H-imidazo[4,5-b]pyridin-7-yl}-6,7,8,9-tetrahydro-5H-benzo[7]annulen-5-yl]-1,2-oxazole-3-carboxamide]
> 100 nM	–	Cc1nn(C)c(C)c1-c1nc2c(-c3ccc4c(c3)CCCC[C@H]4NC(=O)c3noc(C(C)(C)C)n3)ccnc2[nH]1 [Compound 9, 5-tert-Butyl-[1,2,4]oxadiazole-3-carboxylic acid {(R)-2-[2-(1,3,5-trimethyl-1H-pyrazol-4-yl)-3H-imidazo[4,5-b]pyridin-7-yl]-6,7,8,9-tetrahydro-5H-benzocyclohepten-5-yl}-amide]
< 1 nM	–	CCn1nc(-c2nc3nccc(-c4ccc5c(c4)CCCCC5NC(=O)c4nc(C(C)(C)C)no4)c3[nH]2)cc1C (centres unmarked) [Compound 97, 3-tert-butyl-N-{2-[2-(1-ethyl-5-methyl-1H-pyrazol-3-yl)-3H-imidazo[4,5-b]pyridin-7-yl]-6,7,8,9-tetrahydro-5H-benzo[7]annulen-5-yl}-1,2,4-oxadiazole-5-carboxamide]

Compound	IC50 [1]	IC50 [2]
Cc1c(-c2nc3c(-c4ccc5c(c4)CCC[C@H]5NC(=O)N4CC(OC(C)(C)C)C4)ccnc3[nH]2)cnn1C1CCOCC1 [Compound 158, 3-tert-Butoxy-azetidine-1-carboxylic acid ((R)-6-{2-[5-methyl-1-(tetrahydro-pyran-4-yl)-1H-pyrazol-4-yl]-3H-imidazo[4,5-tetrahydro-naphthalen-1-b]pyridin-7-yl}-1,2,3,4-tetrahydro-naphthalen-1-yl)-amide]	1 to 10 nM	1 to 10 nM
Cc1c(-c2nc3c(-c4ccc5c(c4)CCC[C@@H]5NC(=O)N4CC(OC(C)(C)C)C4)ccnc3[nH]2)cnn1C1CCOCC1 [Compound 159, 3-tert-Butoxy-azetidine-1-carboxylic acid ((S)-6-{2-[5-methyl-1-(tetrahydro-pyran-4-yl)-1H-pyrazol-4-yl]-3H-imidazo[4,5-b]pyridin-7-yl}-1,2,3,4-tetrahydro-naphthalen-1-yl)-amide]	1 to 10 nM	> 100 nM

Reference: patent publication US12415803B2, “Fused imidazopyridines as reversible inhibitors of Brutons Tyrosine Kinase (BTK)” (Merck Patent GmbH, priority 2018, dated 2025)
